Experimental data published in ChEMBL document CHEMBL4350975, “Assessment of quinazolinone derivatives as novel non-nucleoside hepatitis B virus inhibitors” (Eur J Med Chem, 2019).

Legend:
[1] = target: Core antigen (Hepatitis B virus) (UniProt Q03732); assay: Inhibition of capsid protein in wild type Hepatitis B virus infected in human HepG2.2.15 cells assessed as reduction of viral DNA level at 10 uM measured after 72 hrs by PCR analysis relative to control; type: cell-based
[2] = target: Core antigen (Hepatitis B virus) (UniProt Q03732); assay: Inhibition of capsid protein in lamivudine/entecavir-resistant Hepatitis B virus harboring rtL180M/rtM204V/rt184L mutant infected in human HepG2.2.15 cells assessed as reduction in viral DNA level at 10 uM measured after 72 hrs by PCR analysis relative to control; type: cell-based
[3] = target: Core antigen (Hepatitis B virus) (UniProt Q03732); assay: Inhibition of capsid protein in Hepatitis B virus infected in human HepG2.2.15 cells assessed as reduction in viral DNA level supplemented with fresh medium containing compound every 2 days and measured after 6 days by RT-PCR analysis relative to control; type: cell-based; parameters: concentration or dose not given beside the values; settings: concentration not given here
[4] = Cytotoxicity against human HepG2.2.15 cells assessed as cell viability measured after 72 hrs by MTT assay; type: cell-based, HepG2 2.2.15
[5] = Selectivity index, ratio of CC50 for human HepG2.2.15 cells to IC50 for capsid protein in Hepatitis B virus infected in human HepG2.2.15 cells assessed as reduction in viral DNA level; type: toxicity, cell-based; settings: read-out: Ratio CC50/IC50
[6] = Selectivity index, ratio of CC50 for human HepG2.2.15 cells to IC50 for capsid protein in lamivudine/entecavir-resistant Hepatitis B virus harboring rtL180M/rtM204V/rt184L mutant infected in human HepG2.2.15 cells assessed as reduction in viral DNA level; type: toxicity, cell-based; settings: read-out: Ratio CC50/IC50
[7] = target: Core antigen (Hepatitis B virus) (UniProt Q03732); assay: Inhibition of capsid protein in wild type Hepatitis B virus infected in human HepG2.2.15 cells assessed as reduction of viral DNA level at 4 uM measured after 72 hrs by PCR analysis relative to control; type: cell-based
[8] = target: Core antigen (Hepatitis B virus) (UniProt Q03732); assay: Inhibition of capsid protein in lamivudine/entecavir-resistant Hepatitis B virus harboring rtL180M/rtM204V/rt184L mutant infected in human HepG2.2.15 cells assessed as reduction in viral DNA level at 4 uM measured after 72 hrs by PCR analysis relative to control; type: cell-based
[9] = target: Core antigen (Hepatitis B virus) (UniProt Q03732); assay: Inhibition of capsid protein in wild type Hepatitis B virus infected in human HepG2.2.15 cells assessed as reduction in viral DNA level at 100 uM measured after 72 hrs by PCR analysis relative to control; type: cell-based
[10] = target: Core antigen (Hepatitis B virus) (UniProt Q03732); assay: Inhibition of capsid protein in lamivudine/entecavir-resistant Hepatitis B virus harboring rtL180M/rtM204V/rt184L mutant infected in human HepG2.2.15 cells assessed as reduction in viral DNA level at 100 uM measured after 72 hrs by PCR analysis relative to control; type: cell-based

Core antigen (Hepatitis B virus), sequence (Q03732 as listed by the source): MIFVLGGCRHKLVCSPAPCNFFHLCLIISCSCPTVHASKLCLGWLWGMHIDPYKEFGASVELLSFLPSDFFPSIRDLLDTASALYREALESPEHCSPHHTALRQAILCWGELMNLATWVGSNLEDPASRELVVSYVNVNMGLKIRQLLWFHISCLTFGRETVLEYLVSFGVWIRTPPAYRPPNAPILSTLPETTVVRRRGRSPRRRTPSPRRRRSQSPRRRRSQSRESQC

Compound	inhibition [3] [%]	CC50 at 72 h [4] [µM]	other results
C=C1[C@H](CO)[C@@H](O)C[C@@H]1n1cnc2c(=O)[nH]c(N)nc21			inhibition [1]: 98.1%; inhibition [2]: 22.6%
O=c1c2cc(Br)ccc2nc(SCc2ccccc2)n1Cc1cccs1	16.7	> 100	
Cc1ccc2nc(SCc3ccccc3)n(Cc3cccs3)c(=O)c2c1	13.8	> 100	
O=c1c2cc(F)ccc2nc(SCc2ccccc2)n1Cc1cccs1	9.53	> 100	
COc1ccccc1CSc1nc2ccc(Br)cc2c(=O)n1Cc1cccs1	64.2	> 100	
CN(C)CCOc1ccc2nc(SCc3ccccc3)n(Cc3cccs3)c(=O)c2c1	83.3	21.1 to 26.7	selectivity ratio [5]: 13.7; selectivity ratio [6]: 14.1; inhibition [7]: 82%; inhibition [8]: 80.9%
COc1ccccc1CSc1nc2ccc(C)cc2c(=O)n1Cc1cccs1	69.4	> 100	
COc1ccc(C(C)=O)cc1CSc1nc2ccc(O)cc2c(=O)n1Cc1cccs1	3.26	> 100	
COc1ccc(C(C)=O)cc1CSc1nc2ccc(F)cc2c(=O)n1Cc1cccs1	30.7	89	
COc1ccc(C(C)=O)cc1CSc1nc2ccccc2c(=O)n1Cc1cccs1	47.1	71.5	selectivity ratio [5]: 17.6
CCN(CC)CCOc1ccc2nc(SCc3cc(C(C)=O)ccc3OC)n(Cc3cccs3)c(=O)c2c1	42	8.76	
COc1ccc(C(C)=O)cc1CSc1nc2ccc(Cl)cc2c(=O)n1Cc1cccs1	40.7	74.6	
O=c1c2cc(O)ccc2nc(SCc2ccccc2)n1Cc1cccs1	5.62	> 100	
COc1ccccc1CSc1nc2ccc(I)cc2c(=O)n1Cc1cccs1	65.9	> 100	
COc1ccccc1CSc1nc2ccc(OCCN(C)C)cc2c(=O)n1Cc1cccs1	53.9	14.7	
O=c1c2cc(Cl)ccc2nc(SCc2ccccc2)n1Cc1cccs1	16.1	> 100	
O=c1c2ccccc2nc(SCc2ccccc2)n1Cc1cccs1	11	> 100	
COc1ccc(C(C)=O)cc1CSc1nc2ccc(I)cc2c(=O)n1Cc1cccs1	45.4	81.1	
CCN(CC)CCOc1ccc2nc(SCc3ccccc3OC)n(Cc3cccs3)c(=O)c2c1	76	10.1	selectivity ratio [5]: 5.25
COc1ccc(C(C)=O)cc1CSc1nc2ccc(OCCN(C)C)cc2c(=O)n1Cc1cccs1	33.9	18	
COc1ccccc1CSc1nc2ccc(O)cc2c(=O)n1Cc1cccs1	0.59	> 100	
COc1ccc(C(C)=O)cc1CSc1nc2ccc(C)cc2c(=O)n1Cc1cccs1	56.1	> 100	
COc1ccccc1CSc1nc2ccc(Cl)cc2c(=O)n1Cc1cccs1	63.3	> 100	
Nc1ccn([C@@H]2CS[C@H](CO)O2)c(=O)n1 [LAMIVUDINE]	94.3	> 100	selectivity ratio [5]: > 1000; inhibition [9]: 90.7%; inhibition [10]: 17.7%; selectivity ratio [6]: < 1
CCN(CC)CCOc1ccc2nc(SCc3ccccc3)n(Cc3cccs3)c(=O)c2c1	98.4	15.8 to 18	selectivity ratio [5]: 22.2; selectivity ratio [6]: 21.4; inhibition [7]: 96.1%; inhibition [8]: 94%
COc1ccccc1CSc1nc2ccccc2c(=O)n1Cc1cccs1	76.3	> 100	selectivity ratio [5]: > 35.6
O=c1c2cc(I)ccc2nc(SCc2ccccc2)n1Cc1cccs1	1.87	> 100	
COc1ccccc1CSc1nc2ccc(F)cc2c(=O)n1Cc1cccs1	79.6	> 100	selectivity ratio [5]: > 40.5
COc1ccc(C(C)=O)cc1CSc1nc2ccc(Br)cc2c(=O)n1Cc1cccs1	46	> 100	
